Experimental data as given in patent US20230126893A1, “[(1,4,5-TRISUBSTITUTED-1H-PYRAZOL-3-YL)SULFANYL]ACETIC ACID DERIVATIVES, SALTS THEREOF, AND USE THEREOF AS ACTIVE HERBICIDAL INGREDIENTS” (BAYER AKTIENGESELLSCHAFT, priority 2020, published 2023).

Assays:
Type in all cases: in vivo
Amaranthus retroflexus [1] = experiment: Pre-emergence herbicidal effect against AMARE; settings: 1280 g/ha, visual score after 3 weeks, 100% = plants have died, 0% = like control plants
Description: (§1) 1. Pre-emergence herbicidal effect and crop plant compatibility Seeds of monocotyledonous and dicotyledonous weed plants and crop plants are laid out in sandy loam soil in wood-fibre pots and covered with soil. The compounds of the invention, formulated in the form of wettable powders (WP) or as emulsion concentrates (EC), are then applied to the surface of the covering soil as aqueous suspension or emulsion at a water application rate equating to 600 to 800 L/ha with addition of 0.2% wetting agent. After the treatment, the pots are placed in a greenhouse and kept under good growth conditions for the trial plants. The damage to the test plants is scored visually after a test period of 3 weeks by comparison with untreated controls (herbicidal activity in percent (%): 100% activity=the plants have died, 0% activity=like control plants). [table]

Echinochloa crus-galli [2] = experiment: Post-emergence herbicidal effect against ECHCG; settings: 1280 g/ha, visual score after about 3 weeks, 100% = plants have died, 0% = like control plants
Experimental: (§2) [table] 2. Post-emergence herbicidal effect and crop plant compatibility Seeds of monocotyledonous and dicotyledonous weed and crop plants are laid out in sandy loam soil in wood-fibre pots, covered with soil and cultivated in a greenhouse under good growth conditions. 2 to 3 weeks after sowing, the test plants are treated at the one-leaf stage. The compounds of the invention, formulated in the form of wettable powders (WP) or as emulsion concentrates (EC), are then sprayed onto the green parts of the plants as aqueous suspension or emulsion at a water application rate equating to 600 to 800 l/ha with addition of 0.2% wetting agent. After the test plants have been left to stand in the greenhouse under optimal growth conditions for about 3 weeks, the action of the preparations is assessed visually in comparison to untreated controls (herbicidal action in percent (%): 100% activity=the plants have died, 0% activity=like control plants).

Setaria viridis [3] = experiment: Post-emergence herbicidal effect against SETVI; settings: 1280 g/ha, visual assessment about 3 weeks after treatment, 100% = plants have died, 0% = like control plants
Experimental: as §2

[4] = test system: Tripleurospermum inodorum; experiment: Pre-emergence herbicidal effect against MATIN; settings: 1280 g/ha, visual score after 3 weeks, 100% = plants have died, 0% = like control plants
Description: as §1

Stellaria media [5] = experiment: Post-emergence herbicidal effect against STEME; settings: 1280 g/ha, visual assessment about 3 weeks after treatment, 100% = plants have died, 0% = like control plants
Experimental: as §2

Bassia scoparia = experiment: Post-emergence herbicidal effect against KCHSC; settings: 1280 g/ha, visual assessment about 3 weeks after treatment, 100% = plants have died, 0% = like control plants
Experimental: as §2

Amaranthus retroflexus [6] = experiment: Post-emergence herbicidal effect against AMARE; settings: 1280 g/ha, visual assessment about 3 weeks after treatment, 100% = plants have died, 0% = like control plants
Experimental: as §2

Digitaria sanguinalis [7] = experiment: Post-emergence herbicidal effect against DIGSA; settings: 1280 g/ha, visual score after about 3 weeks, 100% = plants have died, 0% = like control plants
Experimental: as §2

Veronica persica [8] = experiment: Pre-emergence herbicidal effect against VERPE; settings: 1280 g/ha, visual score after 3 weeks, 100% = plants have died, 0% = like control plants
Description: as §1

Echinochloa crus-galli [9] = experiment: Pre-emergence herbicidal effect against ECHCG; settings: 1280 g/ha, visual score after 3 weeks, 100% = plants have died, 0% = like control plants
Description: as §1

Digitaria sanguinalis [10] = experiment: Pre-emergence herbicidal effect against DIGSA; settings: 1280 g/ha, visual score after 3 weeks, 100% = plants have died, 0% = like control plants
Description: as §1

Lolium rigidum = experiment: Pre-emergence herbicidal effect against LOLRI; settings: 1280 g/ha, visual score after 3 weeks, 100% = plants have died, 0% = like control plants
Description: as §1

Poa annua [11] = experiment: Pre-emergence herbicidal effect against POAAN; settings: 1280 g/ha, visual score after 3 weeks, 100% = plants have died, 0% = like control plants
Description: as §1

[12] = test system: Tripleurospermum inodorum; experiment: Post-emergence herbicidal effect against MATIN; settings: 1280 g/ha, visual assessment about 3 weeks after treatment, 100% = plants have died, 0% = like control plants
Experimental: as §2

Poa annua [13] = experiment: Post-emergence herbicidal effect against POAAN; settings: 1280 g/ha, visual assessment about 3 weeks after treatment, 100% = plants have died, 0% = like control plants
Experimental: as §2

Veronica persica [14] = experiment: Post-emergence herbicidal effect against VERPE; settings: 1280 g/ha, visual assessment about 3 weeks after treatment, 100% = plants have died, 0% = like control plants
Experimental: as §2

Stellaria media [15] = experiment: Pre-emergence herbicidal effect against STEME; settings: 1280 g/ha, visual score after 3 weeks, 100% = plants have died, 0% = like control plants
Description: as §1

Alopecurus myosuroides [16] = experiment: Post-emergence herbicidal effect against ALOMY; settings: 1280 g/ha, visual score after about 3 weeks, 100% = plants have died, 0% = like control plants
Experimental: as §2

Setaria viridis [17] = experiment: Pre-emergence herbicidal effect against SETVI; settings: 1280 g/ha, visual score after 3 weeks, 100% = plants have died, 0% = like control plants
Description: as §1

Alopecurus myosuroides [18] = experiment: Pre-emergence herbicidal effect against ALOMY; settings: 1280 g/ha, visual score after 3 weeks, 100% = plants have died, 0% = like control plants
Description: as §1

Abutylon threophrasti = experiment: Post-emergence herbicidal effect against ABUTH; settings: 1280 g/ha, visual assessment about 3 weeks after treatment, 100% = plants have died, 0% = like control plants
Experimental: as §2

Row | SMILES | Pre-emergence action against AMARE (Amaranthus retroflexus [1]) | Post-emergence action against ECHCG (Echinochloa crus-galli [2]) | Post-emergence action against SETVI (Setaria viridis [3]) | Pre-emergence action against MATIN [4] | Post-emergence action against STEME (Stellaria media [5]) | Post-emergence action against KCHSC (Bassia scoparia) | Post-emergence action against AMARE (Amaranthus retroflexus [6]) | Post-emergence action against DIGSA (Digitaria sanguinalis [7]) | Pre-emergence action against VERPE (Veronica persica [8]) | Pre-emergence action against ECHCG (Echinochloa crus-galli [9]) | Pre-emergence action against DIGSA (Digitaria sanguinalis [10]) | Pre-emergence action against LOLRI (Lolium rigidum) | Pre-emergence action against POAAN (Poa annua [11]) | Post-emergence action against MATIN [12] | Post-emergence action against POAAN (Poa annua [13]) | Post-emergence action against VERPE (Veronica persica [14]) | Pre-emergence action against STEME (Stellaria media [15]) | Post-emergence action against ALOMY (Alopecurus myosuroides [16]) | Pre-emergence action against SETVI (Setaria viridis [17]) | Pre-emergence action against ALOMY (Alopecurus myosuroides [18]) | other results
1 | CCOC(=O)CSc1nn(-c2ccccc2F)c(-c2ccc(F)c(F)c2)c1C#N [Example I-012] | 100% | 100% | 90% | 100% | 100% | 90% | 90% | 100% | 100% | 100% | 100% | 90% | 100% | 90% | 100% | 100% | 100% | 100% | 100% |  | 
2 | O=C(O)CSc1nn(-c2ccccc2F)c(-c2cncc(Cl)c2)c1Br [II-008] | 100% | 100% | 90% | 100% | 100% |  | 90% | 100% | 100% | 100% | 100% | 100% | 100% | 100% | 100% | 100% | 100% | 100% | 100% | 100% | Post-emergence action against ABUTH (Abutylon threophrasti): 90%
3 | O=C(O)CSc1nn(-c2ccccc2F)c(-c2ccc(F)c(F)c2)c1Br [Example I-005, {[4-Bromo-5-(3,4-difluorophenyl)-1-(2-fluorophenyl)-1H-pyrazol-3-yl]sulfanyl}acetic acid] | 100% |  |  | 100% | 100% |  | 90% | 100% | 100% |  | 100% | 100% | 100% | 100% |  | 90% | 100% | 100% | 100% | 90% | 
4 | O=C(O)CSc1nn(-c2cccc(F)c2F)c(-c2ccccc2)c1Br [Example I-006] | 100% |  |  | 100% | 100% | 90% | 100% | 100% | 100% | 90% | 100% | 90% | 100% | 100% | 100% | 90% | 90% | 100% | 100% | 90% | 
